Test results published in ChEMBL document CHEMBL3124792, “Discovery and preclinical characterization of the cyclopropylindolobenzazepine BMS-791325, a potent allosteric inhibitor of the hepatitis C virus NS5B polymerase” (J Med Chem, 2014).
Values after ≈ are worked out from the molar mass of the structure shown.

Tests used:
[1] = Permeability of the compound at pH 7.4 by PAMPA; type: physicochemical; settings: read-out: permeability
[2] = molecular target: T1, PXR (NR1I2) (Homo sapiens, UniProt O75469); test: Transactivation of human PXR expressed in human HepG2 cells by luciferase reporter gene assay relative to control; type: cell-based; settings: HepG2 cells expressing human PXR, read-out: %max
T1 sequence (O75469 whole entry): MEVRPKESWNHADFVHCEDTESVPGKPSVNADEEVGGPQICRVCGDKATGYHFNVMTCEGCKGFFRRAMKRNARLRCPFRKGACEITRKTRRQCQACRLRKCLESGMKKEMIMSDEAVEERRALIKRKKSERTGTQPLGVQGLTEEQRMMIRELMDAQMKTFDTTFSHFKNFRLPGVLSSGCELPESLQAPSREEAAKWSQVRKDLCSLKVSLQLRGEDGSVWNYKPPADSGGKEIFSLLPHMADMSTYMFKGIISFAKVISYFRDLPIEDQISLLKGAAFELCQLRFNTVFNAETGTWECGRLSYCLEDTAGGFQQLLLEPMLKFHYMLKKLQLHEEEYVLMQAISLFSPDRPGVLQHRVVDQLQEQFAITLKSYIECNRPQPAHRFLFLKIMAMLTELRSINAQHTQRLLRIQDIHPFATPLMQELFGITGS

[3] = molecular target: T2, Nuclear receptor subfamily 1 group I member 2 (Homo sapiens, UniProt O75469); test: Transactivation of human PXR expressed in human HepG2 cells by luciferase reporter gene assay; type: cell-based
T2 sequence (O75469 whole entry): T1 sequence (O75469 whole entry)

[4] = Cytotoxicity against human HuH7 cells by Alamar blue assay; type: cell-based; settings: Huh-7 cells
[5] = system: Hepatitis C virus; test: Antiviral activity against Hepatitis C virus Con1 genotype 1b infected in human HuH7 cells after 3 days by FRET assay in presence of 40% human serum; type: functional, organism-based, Hepacivirus hominis; settings: isolate Con1, Huh-7, 72 h
[6] = system: Hepatitis C virus; test: Antiviral activity against Hepatitis C virus H77c genotype 1a infected in human HuH7 cells after 3 days by FRET assay; type: functional, organism-based, Hepacivirus hominis; settings: genotype 1a H77, Huh-7, 72 h
[7] = system: Hepatitis C virus; test: Antiviral activity against Hepatitis C virus Con1 genotype 1b infected in human HuH7 cells after 3 days by FRET assay; type: functional, organism-based, Hepacivirus hominis; settings: isolate Con1, Huh-7, 72 h
[8] = system: Liver microsome; settings: human, microsomes
[9] = system: Liver microsome; settings: rat, microsomes
[10] = Solubility of the compound in amorphous form in phosphate buffer at pH 6.5; type: physicochemical
[11] = Inhibition of HCV Con1 genotype 1b recombinant wild-type NS5B polymerase-mediated incorporation of radiolabeled nucleotides by scintillation proximity assay; parameters: species or system Hepatitis C virus (isolate Con1)
[12] = molecular target: RNA-directed RNA polymerase (Hepacivirus hominis, UniProt O39930, P495A); test: Inhibition of HCV Con1 genotype 1b NS5B RNA dependent RNA polymerase P495A mutant-mediated incorporation of radiolabeled nucleotides by scintillation proximity assay; parameters: species or system Hepatitis C virus (isolate Con1)
Sequence of RNA-directed RNA polymerase (O39930 entry or part of it P495A): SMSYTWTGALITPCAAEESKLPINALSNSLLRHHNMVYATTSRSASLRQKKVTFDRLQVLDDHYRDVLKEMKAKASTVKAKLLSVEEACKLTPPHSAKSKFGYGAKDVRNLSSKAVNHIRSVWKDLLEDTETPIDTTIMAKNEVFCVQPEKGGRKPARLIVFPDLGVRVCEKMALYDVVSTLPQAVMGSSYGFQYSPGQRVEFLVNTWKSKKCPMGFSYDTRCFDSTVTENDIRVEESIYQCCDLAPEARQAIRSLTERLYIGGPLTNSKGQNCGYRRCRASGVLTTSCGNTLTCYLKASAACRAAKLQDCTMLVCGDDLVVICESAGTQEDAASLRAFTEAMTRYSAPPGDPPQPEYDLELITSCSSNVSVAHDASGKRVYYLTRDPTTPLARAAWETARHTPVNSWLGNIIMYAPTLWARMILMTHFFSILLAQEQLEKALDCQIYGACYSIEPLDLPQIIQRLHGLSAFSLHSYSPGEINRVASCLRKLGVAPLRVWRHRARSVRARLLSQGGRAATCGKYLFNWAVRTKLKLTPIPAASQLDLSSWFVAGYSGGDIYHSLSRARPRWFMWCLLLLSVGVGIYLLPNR

Row | SMILES | Papp [1] [×10⁻⁶ cm/s] | Emax [2] [%] | EC50 [3] [nM] | CC50 [4] [nM] | EC50 [5] [nM] | EC50 [6] [nM] | EC50 [7] [nM] | Stability [8] [%] | Stability [9] [%] | solubility [10] [µg/mL] | EC20 ([3]; human, hepg2) [nM] | IC50 [11] [nM] | EC50 [12] [nM]
1 | COc1ccc2c(c1)C1CC1(C(=O)N1CC(O)(C(F)(F)F)C1)Cn1c-2c(C2CCCCC2)c2ccc(C(=O)NS(=O)(=O)N(C)C)cc21 (racemic) | 47 | 32 | > 3000 | > 10000 | 115 | 15 | 50 | 100 | 100 |  |  |  | 
2 | COc1ccc2c(c1)C1CC1(C(=O)N1CC3CCC(C1)N3C)Cn1c-2c(C2CCCCC2)c2ccc(C(=O)NS(=O)(=O)N(C)C)cc21 (racemic) | 21 | 29 | 3000 | > 16000 | 153 | 16 | 39 | 100 | 100 | 41 (≈ 62.1 µM) |  |  | 
3 | COc1ccc2c(c1)C1CC1(C(=O)N1C[C@@H](C)O[C@@H](C)C1)Cn1c-2c(C2CCCCC2)c2ccc(C(=O)NS(=O)(=O)N(C)C)cc21 (mixture of isomers) |  |  |  | 9000 | 98 | 12 | 24 |  |  |  | 2800 |  | 
4 | COc1ccc2c(c1)C1CC1(C(=O)N1CC(O)(C(C)C)C1)Cn1c-2c(C2CCCCC2)c2ccc(C(=O)NS(=O)(=O)N(C)C)cc21 (racemic) | 74 | 14 | > 50000 | 6500 | 65 | < 14 | 23 | 72 | 100 |  |  |  | 
5 | COc1ccc2c(c1)C1CC1(C(=O)N1CC(O)(C3CC3)C1)Cn1c-2c(C2CCCCC2)c2ccc(C(=O)NS(=O)(=O)N(C)C)cc21 (racemic) | 19 | 12 | > 50000 | > 10000 | 68 | < 14 | 29 | 100 | 100 |  |  |  | 
6 | CN(C)S(=O)(=O)NC(=O)c1ccc2c(C3CCCCC3)c3n(c2c1)C[C@]1(C(=O)N2CCOCC2)C[C@@H]1c1ccccc1-3 |  |  |  | > 10000 |  | 259 | 143 |  |  |  |  | 165 | 630
7 | COc1ccc2c(c1)C=C(C(=O)N1CCOCC1)Cn1c-2c(C2CCCCC2)c2ccc(C(=O)NS(=O)(=O)N(C)C)cc21 |  |  |  | > 10000 |  | 61 | 62 |  |  |  |  | 49 | 239
8 | COc1ccc2c(c1)C1CC1(C(=O)N1CC3CCC(C1)N3)Cn1c-2c(C2CCCCC2)c2ccc(C(=O)NS(=O)(=O)N(C)C)cc21 (racemic) | 0.2 |  | > 50000 | > 10000 |  | 34 | 89 | 100 | 100 |  |  |  | 
9 | COc1ccc2c(c1)C1CC1(C(=O)N1C[C@@H](C)N[C@@H](C)C1)Cn1c-2c(C2CCCCC2)c2ccc(C(=O)NS(=O)(=O)N(C)C)cc21 (mixture of isomers) | 14 |  | > 50000 | 15000 | 55 | 21 | 29 | 91 | 100 | < 1 |  |  | 
10 | COc1ccc2c(c1)C1CC1(C(=O)N1CC(O)(c3ccc(F)cc3)C1)Cn1c-2c(C2CCCCC2)c2ccc(C(=O)NS(=O)(=O)N(C)C)cc21 (racemic) |  | 3 | > 50000 | 7000 |  | 54 | 220 | 87 | 100 |  |  |  | 
11 | CCN1CC2CCC(C1)N2C(=O)C12CC1c1cc(OC)ccc1-c1c(C3CCCCC3)c3ccc(C(=O)NS(=O)(=O)N(C)C)cc3n1C2 (racemic) | 41 |  | > 50000 | > 10000 | 37 | 4 | 22 | 98 | 98 |  |  |  | 
12 | COc1ccc2c(c1)C1CC1(C(=O)N1CC3CCC(C1)O3)Cn1c-2c(C2CCCCC2)c2ccc(C(=O)NS(=O)(=O)N(C)C)cc21 (racemic) |  | 144 | 600 | > 10000 | 114 | 7 | 31 |  |  |  |  |  | 
13 | COc1ccc2c(c1)C1CC1(C(=O)N1CCN(C(=O)N(C)C)CC1)Cn1c-2c(C2CCCCC2)c2ccc(C(=O)NS(=O)(=O)N(C)C)cc21 (racemic) | 43 |  | > 50000 | > 10000 | 59 | 23 | 54 | 64 | 93 | 18 (≈ 26.1 µM) |  |  | 
14 | O=C(O)c1ccc2c(C3CCCCC3)c3n(c2c1)CC(C(=O)N1CCOCC1)=Cc1ccccc1-3 |  |  |  | > 10000 |  | 404 | 359 |  |  |  |  | 106 | 3400
15 | COc1ccc2c(c1)C1CC1(C(=O)N1C3CCC1CN(C)C3)Cn1c-2c(C2CCCCC2)c2ccc(C(=O)NS(=O)(=O)N(C)C)cc21 (racemic) | 77 | 21 |  | > 10000 | 45 | 5 | 13 | 90 | 100 | 44 (≈ 66.7 µM) |  |  | 
16 | COc1ccc2c(c1)C1CC1(C(=O)N1CC(O)(c3ccccc3)C1)Cn1c-2c(C2CCCCC2)c2ccc(C(=O)NS(=O)(=O)N(C)C)cc21 (racemic) | 39 | 10 | > 50000 | 8000 |  | 68 | 160 | 72 | 100 |  |  |  | 
17 | COc1ccc2c(c1)C1CC1(C(=O)N1C3CCC1CNC3)Cn1c-2c(C2CCCCC2)c2ccc(C(=O)NS(=O)(=O)N(C)C)cc21 (racemic) | 4 | 31 | 9000 | > 10000 |  | 14 | 32 | 96 | 100 |  |  |  | 
18 | COc1ccc2c(c1)C1CC1(C(=O)N1C3CC1CN(C)C3)Cn1c-2c(C2CCCCC2)c2ccc(C(=O)NS(=O)(=O)N(C)C)cc21 (racemic) |  |  | > 50000 | 10000 | 39 | 4 | 12 | 100 | 100 |  |  |  | 
19 | COc1ccc2c(c1)C1CC1(C(=O)N1CCN(C(C)=O)CC1)Cn1c-2c(C2CCCCC2)c2ccc(C(=O)NS(=O)(=O)N(C)C)cc21 (racemic) | 34 |  | > 50000 | > 10000 | 89 | 45 | 98 | 93 | 100 | 18 (≈ 27.2 µM) |  |  | 
